Experimental data taken from US20260365688A1, “STRAINED BICYCLONONENES” (TAGWORKS PHARMACEUTICALS B.V., priority 2022, published 2026).

What was measured:
Format in all cases: physicochemical
[1] = Second-order rate constant of IEDDA reaction of TCO with tetrazine 2.1 in MeCN by UV-Vis; details: activator 2.1; in MeCN at 20 °C; second-order conditions
Description: (§1) The second-order rate constant of the IEDDA reaction of 3,6-dimethyl-1,2,4,5-tetrazine (2.1) or 3,6-di(pyridin-2-yl)-1,2,4,5-tetrazine (2.2) and a compound of the disclosure in MeCN at 20 °C was determined by UV-Vis spectrometry under second-order reaction conditions (n=1). A cuvette was filled with a solution of 3,6-dimethyl-1,2,4,5-tetrazine or 3,6-di(pyridin-2-yl)-1,2,4,5-tetrazine (3 mL 0.083 mM in MeCN), and equilibrated at 20 °C. Next, a solution of the compound of the disclosure (10.0 μL 25 mM in acetonitrile, 2.50×10^−7 mol) was added, and the solution was quickly homogenized and inserted in the UV spectrometer. The absorption at λ=540 nm (specific for the tetrazine moiety) was measured every second in a time course experiment. From the decay of this absorption, the conversion was calculated. The second-order rate constant k2 was determined from the slope of the curve of a plot of 1/c −1/c0 versus time.

[2] = Second-order rate constant of IEDDA reaction of TCO with tetrazine 2.2 in MeCN by UV-Vis; details: activator 2.2; in MeCN at 20 °C; second-order conditions
Description: as §1

[3] = Releasing activity of s-TCO derivatives on reaction with 3,6-dimethyl-1,2,4,5-tetrazine (HPLC-MS PDA); details: acetonitrile/PBS; for formation of the (pyridazine) elimination product: after 30 min
Description: To a stock solution of 1.7 (10 uL 17.8 mM in DMSO, 1.78×10^−7 mol) was added acetonitrile (0.2 mL), PBS (0.8 mL), and a stock solution of 3,6-dimethyl-1,2,4,5-tetrazine (7.1 uL 25 mM in DMSO, 1.78×10^−7 mol). […] ESI-MS: m/z Calc. for C18H21N3O4 343.15 Da; Obs. [M+H]^+ 344.25 Da, max=243 nm.
To a solution of 1.21 (3.75×10^−7 mol) in acetonitrile (0.2 mL) was added PBS (0.8 mL), and a stock solution of 3,6-dimethyl-1,2,4,5-tetrazine (20 uL 25 mM in DMSO, 5.0×10^−7 mol). […] ESI-MS: m/z Calc. for C18H21N3O4 343.15 Da; Obs. [M+H]^+ 344.25 Da, λmax=250 nm.
To a solution of 1.22 (3.75×10-8 mol) in acetonitrile (0.02 mL) was added PBS (0.08 mL), and a stock solution of 3,6-dimethyl-1,2,4,5-tetrazine (2 uL 25 mM in DMSO, 5.0×10-8 mol).

Compound	Rate constants k2 [1] [M⁻¹ s⁻¹]	Rate constants k2 [2] [M⁻¹ s⁻¹]	disappearance of the pink color (tetrazine consumption) [3]	formation of the (pyridazine) elimination product [3]
O=C1O[C@@H]2C=CCCC[C@@H]3[C@H]1[C@@H]32 (stereo in doubt) [Compound 1.17a, (1R,2S,8R,11S,E)-9-Oxatricyclo[6.3.0.0^2,11]undec-6-en-10-one]	11.5	1100		
O=C1O[C@@H]2C=CCCC[C@@H]3[C@H]1[C@@H]32 (stereo in doubt) [Compound 1.17b, (1R,2S,8R,11S,E)-9-Oxatricyclo[6.3.0.0^2,11]undec-6-en-10-one]	8.7			
COC(=O)[C@@H]1[C@@H]2C/C=C/[C@H](O)CC[C@@H]21 [Compound 1.6b, Methyl (1R,5R,8S,9S,E)-5-hydroxybicyclo[6.1.0]non-3-ene-9-carboxylate]	3.3			
CN(Cc1ccccc1)C(=O)O[C@H]1/C=C/C[C@@H]2[C@H](CC1)[C@@H]2C(=O)ON1C(=O)CCC1=O [Compound 1.7, 2,5-Dioxopyrrolidin-1-yl (1R,5R,8S,9S,E)-5-((benzyl(methyl)carbamoyl)oxy)bicyclo[6.1.0]non-3-ene-9-carboxylate]	2.9	375	within minutes	quantitative formation
COC(=O)[C@H]1[C@H]2CCC/C=C/[C@@H](O)[C@H]21 [Compound 1.16a, Methyl (1R,2R,8S,9S,E)-2-hydroxybicyclo[6.1.0]non-3-ene-9-carboxylate]	7.0			
COC(=O)[C@H]1[C@H]2CCC/C=C/[C@@H](O)[C@H]21 [Compound 1.16b, Methyl (1R,2R,8S,9S,E)-2-hydroxybicyclo[6.1.0]non-3-ene-9-carboxylate]	0.3			
CN(Cc1ccccc1)C(=O)O[C@@H]1/C=C/CCC[C@@H]2[C@H](C(=O)ON3C(=O)CCC3=O)[C@@H]21 [Compound 1.21, 2,5-Dioxopyrrolidin-1-yl (1R,2R,8S,9S,E)-2-((benzyl(methyl)carbamoyl)oxy)bicyclo[6.1.0]non-3-ene-9-carboxylate]	8.0	605	within minutes	quantitative formation
